Among the data in patent publication US11905324B2, “Fluorescent fusion polypeptide capable of detecting phosphorylation of cellular membrane receptors by GRKs (G-protein receptor kinases) and/or receptor tyrosine kinases (RTKs)” (Innovative Technologies in Biological Systems SL, priority 2017, dated 2024) are IC50 values, retold here.

This experiment deals with T1, NK1 receptor (Homo sapiens, UniProt P25103).
T1 construct: expressed in transfected cells
The experiment in a line: NK1-Red ß-ARRNomad biosensor cell line inhibition assay (co-treatment with Substance P). It is filed as cell-based. The settings on record: co-treated with Substance P 100 nM, 24 h, BD PATHWAY 855; read-out: Ic50 (inhibition of NK1 receptor, biosensor change of localization). How it is done: The Ic50 for L733,060 was Approx. 1.84×10^−7M after a treatment of 24 h with the agonist.

T1 sequence (P25103 whole entry, species assumed): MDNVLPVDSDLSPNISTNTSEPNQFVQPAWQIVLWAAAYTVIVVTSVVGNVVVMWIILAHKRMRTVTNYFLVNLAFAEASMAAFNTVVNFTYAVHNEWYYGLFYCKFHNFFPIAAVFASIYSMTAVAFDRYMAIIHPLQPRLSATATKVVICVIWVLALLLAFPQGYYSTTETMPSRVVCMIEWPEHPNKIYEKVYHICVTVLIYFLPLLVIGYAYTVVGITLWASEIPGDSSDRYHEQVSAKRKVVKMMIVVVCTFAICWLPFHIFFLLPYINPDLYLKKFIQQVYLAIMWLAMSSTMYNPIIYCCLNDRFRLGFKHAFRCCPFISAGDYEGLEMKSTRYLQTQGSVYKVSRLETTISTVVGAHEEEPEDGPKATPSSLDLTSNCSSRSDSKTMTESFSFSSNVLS

By IC50 is commonly meant the concentration needed to halve the response being measured. As for `FC(F)(F)c1cc(CO[C@H]2CCCN[C@H]2c2ccccc2)cc(C(F)(F)F)c1` [L733,060], the IC50 is approximately 184 nM.
